In US10780074B2, “Compounds and uses thereof” (Sunovion Pharmaceuticals Inc., priority 2017, dated 2020):
Where a name gives a salt, the structure may show the parent alone.

Tested on: behaviors of compound-treated mice
Test: Neuropharmacological Assay (SmartCube)
Assay type: in vivo
Details: for minimal effective dose: Mus musculus, ip, 0.25 h, dose having 50% or more total activity in SmartCube, i.p., read-out: MED (minimal effective dose); for AD: ADHD (probability that activity matches class) / AG: analgesic (probability that activity matches class) / AX: anxiolytic (probability that activity matches class) / CE: cognitive enhancer (probability that activity matches class) / DP: anti-depressant (probability that activity matches class) / MS: mood stabilizer (probability that activity matches class) / PS: anti-psychotic (probability that activity matches class) / SD: sedative hypnotic (probability that activity matches class) / UN: uncharacterized CNS activity (probability that activity matches class): i.p. 15 min before behavioral test, most efficacious dose(s) of 3 doses
Outline: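 Mice dosed i.p. 15 min before testing, with compound in N-methyl-2-pyrrolidone/PEG/propylene glycol, were video-recorded and algorithmically compared with reference-drug behavioral signatures. This gave class-match probabilities (antidepressant, anxiolytic, etc.) at the most efficacious of 3 doses. MED was defined as the dose with ≥50% total activity, usually tested across 0.3–30 mpk.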

| Structure (SMILES) | minimal effective dose [mg/kg] | AD: ADHD (probability that activity matches class) | AG: analgesic (probability that activity matches class) | AX: anxiolytic (probability that activity matches class) | CE: cognitive enhancer (probability that activity matches class) | DP: anti-depressant (probability that activity matches class) | MS: mood stabilizer (probability that activity matches class) | PS: anti-psychotic (probability that activity matches class) | SD: sedative hypnotic (probability that activity matches class) | UN: uncharacterized CNS activity (probability that activity matches class) |
| --- | --- | --- | --- | --- | --- | --- | --- | --- | --- | --- |
| CNC[C@H]1OCCc2ccc(-c3ccncc3)cc21 [Compound 50, (S)—N-Methyl-1-(7-(pyridin-4-yl)isochroman-1-yl)methanamine hydrochloride] | 3 to 10 | + (LOQ ≤ + <5%) | + (LOQ ≤ + <5%) | ++ (5% ≤ ++ <25%) | ++ (5% ≤ ++ <25%) | ++ (5% ≤ ++ <25%) | + (LOQ ≤ + <5%) | + (LOQ ≤ + <5%) | + (LOQ ≤ + <5%) | ++++ (50% ≤ ++++) |
| NC[C@@H]1OCCCc2c(-c3ccccn3)cccc21 [Compound 158, (R)-(6-(pyridin-2-yl)-1,3,4,5-tetrahydrobenzo[c]oxepin-1-yl)methanamine hydrochloride salt] | 10 to 30 | + (LOQ ≤ + <5%) | + (LOQ ≤ + <5%) | ++ (5% ≤ ++ <25%) | + (LOQ ≤ + <5%) | + (LOQ ≤ + <5%) | + (LOQ ≤ + <5%) | + (LOQ ≤ + <5%) | + (LOQ ≤ + <5%) | + (LOQ ≤ + <5%) |
| CCNC[C@@H]1OCCc2c(-c3ccncc3)cccc21 (single isomer, unassigned) [Compound 66, hydrochloride salt] | 10 to 30 | + (LOQ ≤ + <5%) | + (LOQ ≤ + <5%) | ++ (5% ≤ ++ <25%) | + (LOQ ≤ + <5%) | ++ (5% ≤ ++ <25%) | + (LOQ ≤ + <5%) | + (LOQ ≤ + <5%) | + (LOQ ≤ + <5%) | + (LOQ ≤ + <5%) |
| CNC[C@@H]1OCCc2c(-c3ccnc(C)c3)cccc21 (single isomer, unassigned) [Compound 120, hydrochloride salt] | 10 to 30 | + (LOQ ≤ + <5%) | + (LOQ ≤ + <5%) | ++ (5% ≤ ++ <25%) | + (LOQ ≤ + <5%) | ++ (5% ≤ ++ <25%) | + (LOQ ≤ + <5%) | + (LOQ ≤ + <5%) | + (LOQ ≤ + <5%) | + (LOQ ≤ + <5%) |
| CNC[C@H]1OCCc2c(-c3c[nH]cn3)cccc21 (single isomer, unassigned) [Compound 115, hydrochloride salt] | 10 to 30 | + (LOQ ≤ + <5%) | + (LOQ ≤ + <5%) | ++ (5% ≤ ++ <25%) | + (LOQ ≤ + <5%) | + (LOQ ≤ + <5%) | + (LOQ ≤ + <5%) | + (LOQ ≤ + <5%) | + (LOQ ≤ + <5%) | + (LOQ ≤ + <5%) |
